Data from patent US9505728B2, “Triazolone compounds and uses thereof” (INCEPTION 2, INC., priority 2012, dated 2016).

How the values were obtained:
Glucocorticoid Receptor = molecular target: T1, Glucocorticoid Receptor (Homo sapiens, UniProt P04150); test: Target selectivity counterscreen, Glucocorticoid Receptor reporter assay; type: cell-based; conditions: receptor agonist at ~EC80
T1 construct: host or cells: engineered reporter cells of the kit
T1 sequence (P04150 1-777): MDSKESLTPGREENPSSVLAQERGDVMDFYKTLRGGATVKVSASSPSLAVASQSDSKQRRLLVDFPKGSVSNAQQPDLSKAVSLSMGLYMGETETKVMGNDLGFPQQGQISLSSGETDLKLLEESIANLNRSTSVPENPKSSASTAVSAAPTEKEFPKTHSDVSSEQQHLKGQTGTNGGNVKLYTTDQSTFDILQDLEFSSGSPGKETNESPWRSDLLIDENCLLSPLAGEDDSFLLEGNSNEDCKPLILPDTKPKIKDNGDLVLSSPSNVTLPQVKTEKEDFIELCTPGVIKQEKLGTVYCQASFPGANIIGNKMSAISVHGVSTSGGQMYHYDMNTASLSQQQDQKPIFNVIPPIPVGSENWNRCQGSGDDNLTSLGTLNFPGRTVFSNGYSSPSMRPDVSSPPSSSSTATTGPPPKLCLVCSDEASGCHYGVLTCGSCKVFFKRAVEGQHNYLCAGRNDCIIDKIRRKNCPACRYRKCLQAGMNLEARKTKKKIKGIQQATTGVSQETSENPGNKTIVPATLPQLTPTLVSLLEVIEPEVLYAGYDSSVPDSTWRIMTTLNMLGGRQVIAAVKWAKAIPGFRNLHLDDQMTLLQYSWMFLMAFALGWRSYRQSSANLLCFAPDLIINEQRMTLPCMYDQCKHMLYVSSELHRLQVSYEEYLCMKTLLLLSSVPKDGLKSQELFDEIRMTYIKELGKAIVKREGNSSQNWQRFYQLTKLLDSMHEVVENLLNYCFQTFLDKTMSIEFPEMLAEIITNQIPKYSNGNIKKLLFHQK
Protocol: (§1) Target Selectivity Assays
(§2) To determine species selectivity, a Mouse PPARα Reporter Assay System was used (Indigo Biosciences, Cat. #M00111). Activity of test compounds to antagonize or agonize other isoforms of human PPAR, for example β/δ and γ, were assessed using the corresponding kits from Indigo Biosciences (Cat. #IB00121 and #IB00101, respectively). In addition to PPAR activity, compounds were also screened for activity against other nuclear hormone receptors including Estrogen Receptor β, Glucocorticoid Receptor and Thyroid Receptor β using commercially available kits (Indigo Biosciences, Cat. #IB00411, IB00201 and IB01101, respectively). Each assay system from Indigo Biosciences uses technology analogous to the human PPARα kit, with the variance being that the cells used for each assay were engineered to over-express the receptor of interest. In addition, the appropriate receptor agonist (included with each kit) was used at ˜EC80 for assays in which antagonist potency was being assessed.

PPAR beta/delta = molecular target: T2, PPAR beta/delta (Homo sapiens, UniProt Q03181); test: Target selectivity counterscreen, PPAR β/δ reporter assay; type: cell-based; conditions: receptor agonist at ~EC80
T2 construct: host or cells: engineered reporter cells of the kit
T2 sequence (Q03181 1-441): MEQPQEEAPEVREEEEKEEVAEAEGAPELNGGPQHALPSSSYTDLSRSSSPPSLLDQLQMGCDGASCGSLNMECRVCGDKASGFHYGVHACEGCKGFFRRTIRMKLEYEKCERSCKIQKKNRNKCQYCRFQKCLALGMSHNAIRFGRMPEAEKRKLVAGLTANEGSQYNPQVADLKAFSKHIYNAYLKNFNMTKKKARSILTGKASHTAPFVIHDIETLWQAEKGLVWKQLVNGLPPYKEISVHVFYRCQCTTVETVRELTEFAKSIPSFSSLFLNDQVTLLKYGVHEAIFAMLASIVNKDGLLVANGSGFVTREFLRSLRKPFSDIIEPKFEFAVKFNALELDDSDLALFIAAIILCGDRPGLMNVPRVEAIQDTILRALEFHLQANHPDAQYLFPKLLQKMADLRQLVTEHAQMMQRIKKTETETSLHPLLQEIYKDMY
Protocol: as §1, §2

Thyroid Receptor β = molecular target: T3, Thyroid Receptor β (Homo sapiens, UniProt P10828); test: Target selectivity counterscreen, Thyroid Receptor β reporter assay; type: cell-based; conditions: receptor agonist at ~EC80
T3 construct: host or cells: engineered reporter cells of the kit
T3 sequence (P10828 1-461): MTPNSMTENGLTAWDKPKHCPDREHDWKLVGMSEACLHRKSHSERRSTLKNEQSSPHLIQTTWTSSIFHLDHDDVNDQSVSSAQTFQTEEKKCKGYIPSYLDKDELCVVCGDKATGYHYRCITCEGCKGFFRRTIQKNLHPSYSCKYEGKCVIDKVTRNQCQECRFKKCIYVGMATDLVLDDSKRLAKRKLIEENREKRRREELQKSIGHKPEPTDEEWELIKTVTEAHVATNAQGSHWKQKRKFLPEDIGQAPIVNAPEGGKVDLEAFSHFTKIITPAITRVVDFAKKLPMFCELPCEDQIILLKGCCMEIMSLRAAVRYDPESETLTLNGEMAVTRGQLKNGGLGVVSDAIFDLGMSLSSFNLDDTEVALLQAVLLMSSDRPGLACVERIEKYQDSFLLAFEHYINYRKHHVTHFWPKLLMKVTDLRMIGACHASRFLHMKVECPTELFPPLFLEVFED
Protocol: as §1, §2

B16F10 melanoma cells = test: In vivo cancer model: B16F10 model of pulmonary metastasis; parameters: species or system C57BL6 mice; conditions: intraperitoneal doses at 0.3, 3 and 30 mg/kg, daily, day 21, FIG. 1
Protocol: In Vivo Cancer Model: B16F10 Model of Pulmonary Metastasis
B16F10 cells were cultured in standard growth media, harvested when approximately 50% confluent and injected into C57BL6 mice via the tail vein (50,000 cells per mouse in 200 μL). Mice were then treated daily with test compound. On day 21, mice were euthanized. Lungs were harvested and placed into Fekete's solution overnight to facilitate visualization of the tumors. Black nodules were enumerated.
Statistics were performed by ANOVA with Dunnett's Multiple Comparison Test post-hoc to determine statistical differences from vehicle treatment group (* denotes P<0.05 while *** denotes P<0.001).

PPAR gamma = molecular target: T4, PPAR gamma (Homo sapiens, UniProt P37231); test: Target selectivity counterscreen, PPAR γ reporter assay; type: cell-based; conditions: receptor agonist at ~EC80
T4 construct: host or cells: engineered reporter cells of the kit
T4 sequence (P37231 1-505): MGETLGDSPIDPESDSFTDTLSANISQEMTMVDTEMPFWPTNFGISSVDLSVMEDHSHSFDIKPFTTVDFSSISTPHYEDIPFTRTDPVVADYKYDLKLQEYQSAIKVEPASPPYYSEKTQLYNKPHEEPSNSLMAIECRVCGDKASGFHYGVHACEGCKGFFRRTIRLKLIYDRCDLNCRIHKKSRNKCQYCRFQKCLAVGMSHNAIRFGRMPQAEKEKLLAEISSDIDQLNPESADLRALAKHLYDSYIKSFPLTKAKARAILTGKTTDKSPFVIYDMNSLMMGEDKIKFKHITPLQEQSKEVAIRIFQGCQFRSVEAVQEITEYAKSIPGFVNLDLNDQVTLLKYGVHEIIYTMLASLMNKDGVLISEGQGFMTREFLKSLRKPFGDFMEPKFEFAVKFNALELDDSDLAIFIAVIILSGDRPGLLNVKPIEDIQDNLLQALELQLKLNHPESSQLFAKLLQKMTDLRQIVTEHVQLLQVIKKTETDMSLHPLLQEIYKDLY
Protocol: as §1, §2

## CCn1c(CCCc2ccc(-c3ccc(NS(=O)(=O)c4ccccc4)cn3)cc2)nn(Cc2ccc(C(C)(C)C)cc2)c1=O [Example 10, N-(6-(4-(3-(1-(4-(tert-Butyl)benzyl)-4-ethyl-5-oxo-4,5-dihydro-1H-1,2,4-triazol-3-yl)propyl)phenyl)pyridin-3-yl)benzenesulfonamide]
Glucocorticoid Receptor
  IC50: 36.5 µM
PPAR beta/delta
  IC50: 2.6 µM
Thyroid Receptor β
  IC50: > 10 µM
B16F10 melanoma cells
  metastasis of B16F10 melanoma cells to the lung (black nodules enumerated): inhibition of metastasis
PPAR gamma
  IC50: 2.9 µM
